Laboratory results taken from patent publication US20260242419A1, “A CYCLIC PEPTIDE FOR TRAPPING INTERLEUKIN-1 BETA” (Merck Sharp & Dohme LLC, priority 2023, published 2026).
Like-named read-outs stand apart in the source and are kept apart here. Starred links: 1 amine or outer side, 2 acyl side, 3 side chain; linkers in the order of their positions; H or OH if unused. Non-standard residues stand in square brackets, D forms with d. Residues, ends and D or L forms follow the SMILES beside them. Phe(4-(5-CO2H-2-pyrimidyl)) = N[C@@H](Cc1ccc(-c2ncc(C(=O)O)cn2)cc1)C(=O)O; Ala(2-carboxypyrimidin-5-yl) = N[C@@H](Cc1cnc(C(=O)O)nc1)C(=O)O; dPro(4R-(4-pyridylmethyl)) = O=C(O)[C@H]1C[C@@H](Cc2ccncc2)CN1; Trp(βS-Me,4-F) = C[C@@H](c1c[nH]c2cccc(F)c12)[C@H](N)C(=O)O; X35 = O=C(O)C12CC(c3ccc(C[C@H](N[*:1])C(=O)[*:2])cc3)(C1)C2; Bip(4'-COOH) = N[C@@H](Cc1ccc(-c2ccc(C(=O)O)cc2)cc1)C(=O)O; Ala(1-bicyclo(1.1.1)pentyl) = N[C@@H](CC12CC(C1)C2)C(=O)O; dPro(4R-Bzl(4-F)) = O=C(O)[C@H]1C[C@@H](Cc2ccc(F)cc2)CN1; Ala(piperazin-1-yl) = N[C@@H](CN1CCNCC1)C(=O)O; Ala(pyrimidin-5-yl) = N[C@@H](Cc1cncnc1)C(=O)O; Phe(4-COOH) = N[C@@H](Cc1ccc(C(=O)O)cc1)C(=O)O; Bip = N[C@@H](Cc1ccc(-c2ccccc2)cc1)C(=O)O; Pro(cis-4-F) = O=C(O)[C@@H]1C[C@H](F)CN1; X47 = O=C([C@H](Cc1cccnn1)N[*:1])[*:2]; Ala(4-THP) = N[C@@H](CC1CCOCC1)C(=O)O; d(αMeD) = C[C@@](N)(CC(=O)O)C(=O)O; 4Pal = N[C@@H](Cc1ccncc1)C(=O)O; αMeK = C[C@](N)(CCCCN)C(=O)O; dDab = NCC[C@@H](N)C(=O)O; Dab = NCC[C@H](N)C(=O)O; Aib = CC(C)(N)C(=O)O

Molecular target: T1, IL-1β (Homo sapiens, UniProt P01584)
T1 construct: purchased BioLegend 579404
T1 sequence (P01584 117-269): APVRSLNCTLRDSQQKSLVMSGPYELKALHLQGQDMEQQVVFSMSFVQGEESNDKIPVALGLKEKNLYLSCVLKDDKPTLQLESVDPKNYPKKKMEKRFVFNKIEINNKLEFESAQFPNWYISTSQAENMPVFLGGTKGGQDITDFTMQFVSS
Experiment: IL-6 assay in MRC5 cells: inhibition of IL-1β induced IL-6 secretion (AlphaLISA)
Format: cell-based
Details: inhibition of IL-1β induced IL-6 secretion in MRC5 cells, read-out: MRC5 IC50
Protocol: Procedure for IL-6 Assay in MRC5 Cells
The inhibition of IL-1β induced IL-6 secretion was evaluated in MRC5 cells. Recombinant human IL-1β (BioLegend 579404) at 2λ EC80 concentration was prepared in seeding medium. EMEM (ATCC 30-2003) with 0.025% BSA (Sigma A9576), 1×penicillin/streptomycin (Gibco 15070-063), 1×NEAA (Gibco 11140-050), 1×GlutaMax (Gibco 35050-061), and 1×sodium pyruvate (Gibco 11360-070), 20 μL of IL-1β was added to a 384-well collagen-coated plate (Corning 354664) and pre-incubated at ambient temperature for 1 hour with 200 nL of compound dispensed using an ECHO 555 liquid handler. Human lung fibroblast MRC5 cells (ATCC CCL-171) were added at a density of 3000 cells/20 μL per well. The cells were prepared by passaging three times in growth medium, EMEM (ATCC 30-2003) with 10% fetal bovine serum (Gibco 16140-071), 1×penicillin/streptomycin (Gibco 15070-063), 1×NEAA (Gibco 11140-050), 1×GlutaMax (Gibco 35050-061), and 1×sodium pyruvate (Gibco 11360-070) in collagen-coated T175 flasks (Greiner 661950) and harvested in seeding medium after 5 minutes of 0.25% trypsin-EDTA (Gibco 25200-056) digestion. The 384-well collagen-coated plate, containing a final volume of 40 μL, was incubated at 37° C., 5% CO2 overnight. 5 μL of the conditioned medium was transferred to a 384-well AlphaLISA plate (PerkinElmer 6005350) for detection of IL-6 using the human AlphaLISA IL-6 kit (PerkinElmer AL223F) as per the manufacturer's protocol. 20 μL of the acceptor bead/biotinylated antibody mix was added to the 384-well AlphaLISA plate and incubated for 1 hour at ambient temperature. The donor bead mix was protected from light and 25 μL was added to the plate and incubated for 30 minutes at ambient temperature. The AlphaLISA plate was read on an EnVision multimode plate reader (Perkin Elmer model 2104) using the AlphaScreen setting (laser exc at 680 nm and emis at […]). Dose response curves and IC50 values were analyzed using a 4-parameter logistic equation in Spotfire software (Tibco, Palo Alto, CA).

[1] = compound pre-incubated 1 hour with recombinant human IL-1β

Row | Compound | IC50 [nM] | IC50 [1] [nM]
1 | C[C@@H](c1c[nH]c2cccc(F)c12)[C@@H]1NC(=O)[C@@H]2C[C@H](F)CN2C(=O)CNC(=O)[C@H](Cc2ccc(C(=O)O)cc2)NC(=O)[C@H](CC23CC(C2)C3)NC(=O)[C@H](Cc2ccc(C34CC(C(=O)O)(C3)C4)cc2)NC(=O)[C@H]2C[C@@H](Cc3ccc(F)cc3)CN2C(=O)CNC(=O)[C@H](CCN)NC(=O)[C@H](CCC(N)=O)NC(=O)[C@H](Cc2cncnc2)NC(=O)C(C)(C)NC(=O)[C@H](Cc2c[nH]c3ccccc23)NC(=O)[C@H](CCC(=O)O)NC(=O)C(C)(C)NC1=O [Example 99] (cyclo([Aib]EW[Aib][Ala(pyrimidin-5-yl)]Q[Dab]G[dPro(4R-Bzl(4-F))][X35][Ala(1-bicyclo(1.1.1)pentyl)][Phe(4-COOH)]G[Pro(cis-4-F)][Trp(βS-Me,4-F)])) | 0.031 | –
2 | C[C@@H](c1c[nH]c2cccc(F)c12)[C@@H]1NC(=O)[C@@H]2C[C@H](F)CN2C(=O)CNC(=O)[C@H](Cc2ccc(C(=O)O)cc2)NC(=O)[C@H](Cc2ccncc2)NC(=O)[C@H](Cc2ccc(-c3ccccc3)cc2)NC(=O)[C@H]2C[C@@H](Cc3ccncc3)CN2C(=O)CNC(=O)[C@H](CCN)NC(=O)[C@H](CCC(N)=O)NC(=O)[C@H](Cc2cnc(C(=O)O)nc2)NC(=O)C(C)(C)NC(=O)[C@H](Cc2c[nH]c3ccccc23)NC(=O)[C@H](CO)NC(=O)C(C)(C)NC1=O [Example 269] (cyclo([Bip][4Pal][Phe(4-COOH)]G[Pro(cis-4-F)][Trp(βS-Me,4-F)][Aib]SW[Aib][Ala(2-carboxypyrimidin-5-yl)]Q[Dab]G[dPro(4R-(4-pyridylmethyl))])) | – | 0.014
3 | C[C@@H](c1c[nH]c2cccc(F)c12)[C@@H]1NC(=O)[C@@H]2C[C@H](F)CN2C(=O)CNC(=O)[C@H](Cc2ccc(C(=O)O)cc2)NC(=O)[C@H](Cc2ccncc2)NC(=O)[C@H](Cc2ccc(-c3ccccc3)cc2)NC(=O)[C@H]2C[C@@H](Cc3ccncc3)CN2C(=O)CNC(=O)[C@H](CCN)NC(=O)[C@H](CCC(N)=O)NC(=O)[C@@H](CCN)NC(=O)[C@@](C)(CC(=O)O)NC(=O)[C@H](Cc2c[nH]c3ccccc23)NC(=O)[C@H](CO)NC(=O)C(C)(C)NC1=O [Example 248] (cyclo([Bip][4Pal][Phe(4-COOH)]G[Pro(cis-4-F)][Trp(βS-Me,4-F)][Aib]SW[d(αMeD)][dDab]Q[Dab]G[dPro(4R-(4-pyridylmethyl))])) | – | 0.028
4 | C[C@@H](c1c[nH]c2cccc(F)c12)[C@@H]1NC(=O)[C@@H]2C[C@H](F)CN2C(=O)CNC(=O)[C@H](Cc2ccc(C(=O)O)cc2)NC(=O)[C@H](Cc2ccncc2)NC(=O)[C@H](Cc2ccc(-c3ncc(C(=O)O)cn3)cc2)NC(=O)[C@H]2C[C@@H](Cc3ccncc3)CN2C(=O)CNC(=O)[C@H](CCN)NC(=O)[C@H](CCC(N)=O)NC(=O)[C@H](CC2CCOCC2)NC(=O)[C@@](C)(CC(=O)O)NC(=O)[C@H](Cc2c[nH]c3ccccc23)NC(=O)[C@H](CO)NC(=O)C(C)(C)NC1=O [Example 351] (cyclo([Phe(4-(5-CO2H-2-pyrimidyl))][4Pal][Phe(4-COOH)]G[Pro(cis-4-F)][Trp(βS-Me,4-F)][Aib]SW[d(αMeD)][Ala(4-THP)]Q[Dab]G[dPro(4R-(4-pyridylmethyl))])) | 0.016 | –
5 | C[C@@H](c1c[nH]c2cccc(F)c12)[C@@H]1NC(=O)[C@@H]2C[C@H](F)CN2C(=O)CNC(=O)[C@H](Cc2ccc(C(=O)O)cc2)NC(=O)[C@H](CC23CC(C2)C3)NC(=O)[C@H](Cc2ccc(-c3ccc(C(=O)O)cc3)cc2)NC(=O)[C@H]2C[C@@H](Cc3ccc(F)cc3)CN2C(=O)CNC(=O)[C@H](CO)NC(=O)[C@H](CCC(N)=O)NC(=O)[C@H](CN2CCNCC2)NC(=O)[C@](C)(CCCCN)NC(=O)[C@H](Cc2c[nH]c3ccccc23)NC(=O)[C@H](CO)NC(=O)C(C)(C)NC1=O [Example 175] (cyclo([Bip(4'-COOH)][Ala(1-bicyclo(1.1.1)pentyl)][Phe(4-COOH)]G[Pro(cis-4-F)][Trp(βS-Me,4-F)][Aib]SW[αMeK][Ala(piperazin-1-yl)]QSG[dPro(4R-Bzl(4-F))])) | 0.037 | –
6 | C[C@@H](c1c[nH]c2cccc(F)c12)[C@@H]1NC(=O)[C@@H]2C[C@H](F)CN2C(=O)CNC(=O)[C@H](Cc2ccc(C(=O)O)cc2)NC(=O)[C@H](Cc2ccncc2)NC(=O)[C@H](Cc2ccc(-c3ccc(C(=O)O)cc3)cc2)NC(=O)[C@H]2C[C@@H](Cc3ccc(F)cc3)CN2C(=O)CNC(=O)[C@H](CCN)NC(=O)[C@H](CCC(N)=O)NC(=O)[C@H](Cc2cccnn2)NC(=O)C(C)(C)NC(=O)[C@H](Cc2c[nH]c3ccccc23)NC(=O)[C@H](CCC(=O)O)NC(=O)C(C)(C)NC1=O [Example 102] (cyclo([Bip(4'-COOH)][4Pal][Phe(4-COOH)]G[Pro(cis-4-F)][Trp(βS-Me,4-F)][Aib]EW[Aib][X47]Q[Dab]G[dPro(4R-Bzl(4-F))])) | 0.021 | –
